According to patent US10562842B2, “Use of polyaminoisoprenyl derivatives in antibiotic or antiseptic treatment” (UNIVERSITE D'AIX-MARSEILLE, priority 2011, dated 2020):
Peptide text beside a SMILES is read from it. * marks the point of attachment. βNA = c1ccc2cc(N*)ccc2c1

Key:
E. Coli AG100 = assay: Susceptibility of Gram-negative strains to macrolides in the presence of test compound; assay type: cell-based, Escherichia coli; set-up: Susceptibility to Clarithomycin, E. Coli AG100 / Susceptibility to Erythromycin, E. Coli AG100: key to the marks not given beside the values
[1] = system: S. enterica Thyphimurium ATCC13311; assay: as above; assay type: cell-based, Salmonella enterica Typhimurium; set-up: key to the marks not given beside the values
E. aerogenes ATCC13048 = assay: as above; assay type: cell-based, Enterobacter aerogenes
[2] = system: Enterobacter aerogenes MDR Ea289; assay: MIC of antibiotics ± test compound (MIC ratio), micro-broth dilution; assay type: cell-based; conditions: for Effective concentration (mM) for a MIC ratio of chloramphenicol ≥ 8 on Ea289 / MIC ratio (*) on Ea289 Chl: chloramphenicol
Experimental: The process consists of treating the MDR bacteria with the compounds of the invention in the presence of antibiotics.
(§1) Susceptibilities to antibiotics and compounds were determined in microplates by broth dilution method, as previously described. Minimal Inhibitory Concentrations (MICs) were determined with an inoculum of 10^6 CFU in 200 μL of MH broth containing two-fold serial dilutions of each drug. […] All MIC determinations were repeated at least three times in independent experiments.
The MICs of chloramphenicol±test compounds (MIC/4) were determined by the micro-broth dilution method (9). All MIC determinations were repeated at least three times in independent experiments. The MIC ratio corresponds to the ratio of the MIC of an antibiotic alone to the MIC of the same antibiotic in the presence of the tested compound (at MIC/4).
The compounds listed in Table 2 were tested for their ability to decrease the chloramphenicol MIC of Ea289, an Enterobacter aerogenes MDR strain (1). Each compound was first tested at MIC/4. […] All MIC determinations were repeated at least three times in independent experiments.
(§2) For reminder, the MIC ratio corresponds to the ratio of the MIC of the assessed antibiotic alone to the MIC of the same antibiotic in the presence of the tested compound (at MIC/4).

A. Baumannii ATCC19606 = assay: Susceptibility of Gram-negative strains to macrolides in the presence of test compound; assay type: cell-based, Acinetobacter baumannii; set-up: Susceptibility to Clarithomycin, A. Baumannii ATCC19606: key to the marks not given beside the values
CHO cells = assay: Toxicity on CHO cultured cells; assay type: cell-based; conditions: killing of 50% of the CHO cells after 24 hours of incubation
Experimental: The toxicity of each compound was determined on CHO cultured cells. Incubation of CHO cells was performed with serial dilution of compounds. The compounds are either solubilized in DMSO or in PBS. The IC50 corresponds to the concentration of compounds leading to a killing of 50% of the CHO cells after 24 hours of incubation.

[3] = Tolerance in mice, intraperitoneal route; assay type: in vivo; conditions: for tissue anomaly (liver, lung, kidney, intestine): day 2, Compound 5 8.8 mg/kg, 8 1.46 mg/kg, 11 0.45 mg/kg, 14 0.35 mg/kg, 12 6.3 mg/kg
Experimental: Mice were administered with increasing doses of test compounds by intraperitoneal route.
The mice were sacrificed on day 2 after the injection of the test compound and autopsied. No morphological anomaly was observed. Liver, lung, kidney and intestine of each mouse were fixed and analysed.

[4] = system: Enterobacter aerogenes MDR Ea289; assay: MIC of antibiotics ± test compound (MIC ratio), micro-broth dilution; assay type: cell-based; conditions: compound at MIC/4, Set 2; for MIC ratio (*) on Ea289 Dox: doxycycline; for MIC ratio (*) on Ea289 Nal: nalidixic acid
[5] = system: Salmonella Thyphimurium MDR BN10055; assay: as above; assay type: cell-based, Salmonella enterica serovar Typhimurium; conditions: compound at MIC/4; for MIC ratio (*) on BN10055 Chl: chloramphenicol; for MIC ratio (*) on BN10055 Dox: doxycycline; for MIC ratio (*) on BN10055 Nal: nalidixic acid
Experimental: (§3) The Enterobacter aerogenes Ea289 strain is a Kans derivative of the MDR clinical isolate Ea27, the acrB mutant, EaEP294, was constructed from Ea289. Multidrug-resistant Salmonella enterica serovar Typhimurium DT104 strains (BN10055) was isolated from cattle in France, the isogenic acrB derivative mutant, BN10055ΔacrB, was constructed from BN10055. Strains were maintained at −80° C. in 25% (v/v) glycerol for cryoprotection. Bacteria were routinely grown in Mueller-Hinton (MH) broth at 37° C.
as §1
(§4) […] All MIC determinations were repeated at least three times in independent experiments. The MIC ratio corresponds to the ratio of the MIC of an antibiotic alone to the MIC of the same antibiotic in the presence of the tested compound (at MIC/4).
as §2

BN10055ΔacrB [6] = assay: as above; assay type: cell-based, Salmonella enterica serovar Typhimurium; conditions: compound at MIC/4, Set 1
Experimental: as §3, §1, §4, §2

Ea289ΔacrB (Ea294) = assay: as above; assay type: cell-based, Enterobacter aerogenes; conditions: compound at MIC/4, Set 1
Experimental: as §3, §1, §4, §2

BN10055ΔacrB [7] = assay: MIC by broth dilution (intrinsic MIC); assay type: cell-based, Salmonella enterica; conditions: antibiotic alone
Experimental: as §1

BN10055 = assay: MIC by broth dilution (intrinsic MIC); assay type: cell-based, Salmonella enterica; conditions: antibiotic alone
Experimental: as §1

Ea294 = assay: MIC by broth dilution (intrinsic MIC); assay type: cell-based, Enterobacter aerogenes; conditions: antibiotic alone
Experimental: as §1

Ea289 = assay: MIC by broth dilution (intrinsic MIC); assay type: cell-based, Enterobacter aerogenes; conditions: antibiotic alone
Experimental: as §1

## N=C(N)NCCC[C@H](NC(=O)[C@@H](N)Cc1ccccc1)C(=O)Nc1ccc2ccccc2c1 [PAβN, Phenyl-Arginine β-Naphtylamide] (H-Phe-Arg-βNA)
E. Coli AG100
  Susceptibility to Clarithomycin, E. Coli AG100: ++
  Susceptibility to Erythromycin, E. Coli AG100: ++
  Susceptibility to Spiramycin, E. Coli AG100: +
[1]
  Susceptibility to Clarithomycin, S. enterica Thyphimurium ATCC13311: ++
  Susceptibility to Erythromycin, S. enterica Thyphimurium ATCC13311: ++
  Susceptibility to Spiramycin, S. enterica Thyphimurium ATCC13311: ++
E. aerogenes ATCC13048
  Susceptibility to Clarithomycin, E. aerogenes ATCC13048: +
  Susceptibility to Erythromycin, E. aerogenes ATCC13048: +
  Susceptibility to Spiramycin, E. aerogenes ATCC13048: +
[2]
  Effective concentration (mM) for a MIC ratio of chloramphenicol ≥ 8 on Ea289: 0.038 mM
A. Baumannii ATCC19606
  Susceptibility to Clarithomycin, A. Baumannii ATCC19606: ++
  Susceptibility to Erythromycin, A. Baumannii ATCC19606: +
  Susceptibility to Spiramycin, A. Baumannii ATCC19606: +
CHO cells
  IC50: > 5 mM

## CC(C)=CCC/C(C)=C/CNCCCN [Compound 12, (3,7-Dimethyl-octa-2,6-dienyl)-propane-1,3-diamine]
[3]
  tissue anomaly (liver, lung, kidney, intestine): no significant tissue anomaly
[2]; compound at MIC/4, Set 2
  MIC ratio (*) on Ea289 Chl: 16
[4]
  MIC ratio (*) on Ea289 Dox: 16
  MIC ratio (*) on Ea289 Nal: 4-8
[5]; Set 2
  MIC ratio (*) on BN10055 Chl: 8
  MIC ratio (*) on BN10055 Dox: 16
  MIC ratio (*) on BN10055 Nal: 32

## CC(C)=CCC/C(C)=C/C(=O)NCCCN(CCCN)CCCN [Compound 5]
[3]; 35.25 mg/kg
  tissue observation at the highest dose: slight vascular modifications
[3]
  tissue anomaly (liver, lung, kidney, intestine): no significant tissue anomaly

## CC(C)=CCC/C(C)=C/CC/C(C)=C/CNCCCNCCCCNCCCN [Compound 8, {3-[4-(3-Amino-propylamino)-butylamino]-propyl}-(3,7,11-trimethyl-dodeca-2,6,10-trienyl)-amine]
[3]
  tissue anomaly (liver, lung, kidney, intestine): no significant tissue anomaly
[2]
  Effective concentration (mM) for a MIC ratio of chloramphenicol ≥ 8 on Ea289: 0.0078 mM
[2]; chloramphenicol MIC ratio of 8 on Ea289
  efficient concentration, times lower than the control PAβN: about 4.9 times
[2]; chloramphenicol on Ea289
  activity, effective concentration compared with PAβN to reach a MIC ratio of 8: strong activity
[2]; compound at MIC/4, Set 1
  MIC ratio (*) on Ea289 Chl: 8-16
[2]; compound at MIC/4, Set 2
  MIC ratio (*) on Ea289 Chl: 8-16
[2]; erythromycin, compound at MIC/4, Set 1
  MIC ratio(*) on Ea289 Ery: 32
[2]; nalidixic acid, compound at MIC/4, Set 1
  MIC ratio (*) on Ea289 Nal: >16
CHO cells; Cricetulus griseus
  IC50: 0.726 mM
[4]
  MIC ratio (*) on Ea289 Dox: 16
  MIC ratio (*) on Ea289 Nal: 16-32
BN10055ΔacrB [6]; chloramphenicol
  MIC ratio(*) on BN10055ΔacrB Chl: 4
BN10055ΔacrB [6]; erythromycin
  MIC ratio(*) on BN10055ΔacrB Ery: 8
BN10055ΔacrB [6]; nalidixic acid
  MIC ratio(*) on BN10055ΔacrB Nal: 4
[5]; Set 1
  MIC ratio (*) on BN10055 Chl: >16
  MIC ratio (*) on BN10055 Nal: 64
[5]; Set 2
  MIC ratio (*) on BN10055 Chl: 16-32
  MIC ratio (*) on BN10055 Dox: 8
  MIC ratio (*) on BN10055 Nal: 64
[5]; erythromycin, Set 1
  MIC ratio(*) on BN10055 Ery: 8
Ea289ΔacrB (Ea294); chloramphenicol
  MIC ratio(*) on Ea289ΔacrB Chl: 2
Ea289ΔacrB (Ea294); erythromycin
  MIC ratio(*) on Ea289ΔacrB Ery: 16
Ea289ΔacrB (Ea294); nalidixic acid
  MIC ratio(*) on Ea289ΔacrB Nal: 4

## O=C(N[C@H](CO)[C@H](O)c1ccc([N+](=O)[O-])cc1)C(Cl)Cl [Chloramphenicol, reference compound]
BN10055ΔacrB [7]
  Chl-MIC: Chloramphenicol Minimal Inhibitory Concentration, BN10055ΔacrB: 16 µg/mL
BN10055
  Chl-MIC: Chloramphenicol Minimal Inhibitory Concentration, BN10055: 256 µg/mL
Ea294
  Chl-MIC: Chloramphenicol Minimal Inhibitory Concentration, Ea294: 64 µg/mL
Ea289
  Chl-MIC: Chloramphenicol Minimal Inhibitory Concentration, Ea289: 1024 µg/mL
